# From patent US5672472A, “Synthetic unrandomization of oligomer fragments” (ISIS Pharmaceuticals, Inc., priority 1994, dated 1997)
# Experiments:
# [1] = test system: ras 47-mer stem/loop RNA; experiment: Gel-shift assay of random 2'-O-methyl oligonucleotide sets binding to ras RNA target; conditions: for Kd: Table 3, 2'-O-methyl sets, ras RNA about 10 pM, 100 mM NaCl, 10 mM MgCl2, 4 h at 37° C., read-out: KD (set KD); for binding in gel shift (FIG. 2B) / shift of the target: Round 2; for binding in gel shift (FIG. 2B): sets at 1 and 10 μM
# [2] = test system: target protein; experiment: Gel shift assay of anion-exchange subfractions of oligonucleotide sets; format: binding; conditions: first round; sets subfractionated by charge
# Description: An oligonucleotide analog group comprising four sets of oligonucleotides eight positions in length is prepared in accordance with Examples 3 and 6 wherein each of the sets has a different one of adenins, guanine, thymidine and cytosine in the 5th position, and the rest of the positions are randomized to provide the group: NNNNANNN, NNNNGNNN, NNNNTNNN, and NNNNCNNN. Each set is subfractionated by charge with an anion exchange column. Each subfraction is tested for affinity for the target protein by gel shift assay. […] In a further round, the 5th position is fixed to contain an adenins in the 5th position, and each set has a different nucleotide in the fourth position to provide the group NNNAANNN, NNNTANNN, NNNGANNN, and NNNCANNN. The sets are again subfractionated by charge with an anion exchange column and the subfractions are tested for affinity for the target protein by gel shift assay. The steps are repeated until each position is determined.
# [3] = test system: HIV tat protein; experiment: Binding of oligonucleotide groups to HIV tat protein; conditions: Example 27
# [4] = test system: protein CD4; experiment: Gel shift of 5' end labeled oligonucleotide groups with CD4; format: binding; conditions: for binding to the protein CD4: 100 pmoles labeled group, FIG. 7
sequence,measurement,setting,value
NNCNCNCNN [NNXNCNCNN X=C],shift of the target (FIG. 2C),"[1]; Round 3, sets at 0.1 and 1 μM",greater than 50%
same,Kd,[1],0.5 µM
NNNNANNN [Set A],binding affinity of subfraction for the target protein,[2],highest binding affinity
NNNNANNNN [NNNNXNNNN X=A],shift of ras target (FIG. 2A),"[1]; Round 1, 100 uM",slight shift
same,Kd,[1],22 µM
NNNNCNANN [NNNNCNXNN X=A],binding in gel shift (FIG. 2B),[1],minimal binding
same,Kd,[1],> 10 µM
NNNNCNCNN [NNNNCNXNN X=C],shift of the target,[1]; 1 μM,> 25%
same,shift of the target,[1]; 10 μM,about 50%
same,Kd,[1],4 µM
NNNNCNGNN [NNNNCNXNN X=G],binding in gel shift (FIG. 2B),[1],minimal binding
same,Kd,[1],> 10 µM
NNNNCNNNN [NNNNXNNNN X=C],shift of the target to the bound form,"[1]; Round 1, 50 uM oligonucleotide concentration",more than 50%
same,Kd,[1],10 µM
NNNNGNNNN [NNNNXNNNN X=G],binding in gel shift (FIG. 2A),"[1]; Round 1, sets at 5, 10, 50 and 100 μM",no binding
same,Kd,[1],> 100 µM
NNNNTNNNN,binding against the tat protein,[3],Binding has been observed
same,binding to the protein CD4,[4]; listed as phosphorothioate oligonucleotide,binding of the oligonucleotide to the protein
same,binding affinity for CD4 (FIG. 7 legend),"[4]; 100 pmoles, visible at 0.5 and 1 μG CD4, presence and absence of dIdC",exhibited binding
NNNNTNNNN [2'-O-methyl set],binding to the protein CD4,[4],No binding
